Laboratory results as given in article PMC9516332 (Frontiers in Oncology, 2022).

Tests used:
AP-1060 (ETV6-NTRK3) = assay: Cell viability assay; settings: read-out: IC50 in cell proliferation assay
134 cancer cell lines = assay: Cell viability assay (ATPlite, 72 hours), IC50 on cancer cell line panel; settings: 134 cell line panel

`C=CC(=O)Nc1cc(Nc2nccc(-c3cn(C)c4ccccc34)n2)c(OC)cc1N(C)CCN(C)C` [osimertinib] was tested, and the IC50 (AP-1060 (ETV6-NTRK3)) was 1940 nM and the “lower IC50 of the most sensitive cell line compared to the panel average” value (134 cancer cell lines) was “around 300 fold”.
